Test results: PubChem BioAssay AID274 (DTP/NCI, 2004)
Toxic doses and inconclusive results are not listed. Rule for the calls: active = survival T/C of 150% or more; inactive = T/C below 125% in these data.

System: BDF1 mice, Lewis lung carcinoma iv, survival T/C
Assay: NCI In Vivo Anticancer Drug Screen. Data for tumor model Lewis Lung Carcinoma (intravenous) in B6D2F1 (BDF1) mice
Conditions: endpoint: median survival time, higher = longer survival
Procedure: The antitumor activity of compounds was measured in mice bearing transplantable tumors. Survival or tumor size were measured and the results are expressed as the measurement made in the treated group (T) divided by the measurement made in the vehicle treated control group (C). The tumor model used in this assay is Lewis Lung Carcinoma (intravenous) in B6D2F1 (BDF1) mice

[1] = dose: 1.5 mg/kg/injection, schedule: Q01DX009 (ip), vehicle: Klucel (hydroxypropylcellulose) (HPC)

Measured: T/C

O=P1(NCCCl)OCCC(OO)N1CCCl (configuration not stated)
inactive: dose: 101.0 mg/kg/injection, schedule: Q01DX001 (ip), vehicle: Klucel (hydroxypropylcellulose) (HPC) 117 % of control
active: dose: 69.0 mg/kg/injection, schedule: Q01DX001 (ip), vehicle: Klucel (hydroxypropylcellulose) (HPC) 150 % of control | dose: 230.0 mg/kg/injection, schedule: Q01DX001 (ip), vehicle: Klucel (hydroxypropylcellulose) (HPC) 160 % of control

Nc1nc(=S)c2ncn(C3OC(CO)CC3O)c2[nH]1 (configuration not stated)
inactive: dose: 5.0 mg/kg/injection, schedule: Q01DX009 (ip), vehicle: saline 115 % of control | dose: 10.0 mg/kg/injection, schedule: Q01DX009 (ip), vehicle: saline 101 % of control | dose: 20.0 mg/kg/injection, schedule: Q01DX009 (ip), vehicle: saline 87 % of control

O=[N+]([O-])c1ccc(Sc2ccncn2)c([N+](=O)[O-])c1
inactive: dose: 12.5 mg/kg/injection, schedule: Q01DX009 (ip), vehicle: saline with Tween-80 91 % of control | dose: 25.0 mg/kg/injection, schedule: Q01DX009 (ip), vehicle: saline with Tween-80 112 % of control | dose: 50.0 mg/kg/injection, schedule: Q01DX009 (ip), vehicle: saline with Tween-80 95 % of control | dose: 100.0 mg/kg/injection, schedule: Q01DX009 (ip), vehicle: saline with Tween-80 107 % of control

NC(=O)c1cn(C2OC(CO)C(O)C2O)c2ncnc(N)c12 (configuration not stated)
inactive: dose: 0.38 mg/kg/injection, schedule: Q01DX009 (ip), vehicle: Klucel (hydroxypropylcellulose) (HPC) 95 % of control | dose: 0.75 mg/kg/injection, schedule: Q01DX009 (ip), vehicle: Klucel (hydroxypropylcellulose) (HPC) 101 % of control | [1] 92 % of control

c1ccc(CN2CCOC2)cc1
inactive: dose: 12.5 mg/kg/injection, schedule: Q01DX009 (ip), vehicle: saline 96 % of control | dose: 25.0 mg/kg/injection, schedule: Q01DX009 (ip), vehicle: saline 107 % of control | dose: 50.0 mg/kg/injection, schedule: Q01DX009 (ip), vehicle: saline 116 % of control | dose: 100.0 mg/kg/injection, schedule: Q01DX009 (ip), vehicle: saline 99 % of control

O=NN(CCCl)C(=O)NC1CCCCC1
inactive: dose: 1.0 mg/kg/injection, schedule: Q01DX009 (ip), vehicle: Klucel (hydroxypropylcellulose) (HPC) 106 % of control | dose: 2.0 mg/kg/injection, schedule: Q01DX009 (ip), vehicle: Klucel (hydroxypropylcellulose) (HPC) 108 % of control | dose: 4.0 mg/kg/injection, schedule: Q01DX009 (ip), vehicle: Klucel (hydroxypropylcellulose) (HPC) 120 % of control | dose: 16.0 mg/kg/injection, schedule: Q01DX009 (ip), vehicle: Klucel (hydroxypropylcellulose) (HPC) 118 % of control | dose: 32.0 mg/kg/injection, schedule: Q01DX009 (ip), vehicle: Klucel (hydroxypropylcellulose) (HPC) 93 % of control
active: dose: 8.0 mg/kg/injection, schedule: Q01DX009 (ip), vehicle: Klucel (hydroxypropylcellulose) (HPC) 213 % of control

O=NN(CCCl)C(=O)NCCCl
inactive: [1] 122 % of control | dose: 10.0 mg/kg/injection, schedule: Q01DX001 (ip), vehicle: saline + alcohol 116 % of control | dose: 20.0 mg/kg/injection, schedule: Q01DX001 (ip), vehicle: saline + alcohol 124 % of control | dose: 40.0 mg/kg/injection, schedule: Q01DX001 (ip), vehicle: saline + alcohol 109 % of control | dose: 50.0 mg/kg/injection, schedule: Q01DX001 (ip), vehicle: saline + alcohol 117 % of control
active: dose: 3.0 mg/kg/injection, schedule: Q01DX009 (ip), vehicle: Klucel (hydroxypropylcellulose) (HPC) 305 % of control | dose: 6.0 mg/kg/injection, schedule: Q01DX009 (ip), vehicle: Klucel (hydroxypropylcellulose) (HPC) 163 % of control | dose: 12.0 mg/kg/injection, schedule: Q01DX009 (ip), vehicle: Klucel (hydroxypropylcellulose) (HPC) 304 % of control | dose: 20.48 mg/kg/injection, schedule: Q01DX001 (iv), vehicle: saline + alcohol 215 % of control | dose: 25.6 mg/kg/injection, schedule: Q01DX001 (iv), vehicle: saline + alcohol 268 % of control | dose: 32.0 mg/kg/injection, schedule: Q01DX001 (iv), vehicle: saline + alcohol 267 % of control | dose: 40.0 mg/kg/injection, schedule: Q01DX001 (iv), vehicle: saline + alcohol 268 % of control | dose: 50.0 mg/kg/injection, schedule: Q01DX001 (iv), vehicle: saline + alcohol 268 % of control | dose: 62.5 mg/kg/injection, schedule: Q01DX001 (iv), vehicle: saline + alcohol 268 % of control
